From the supplement of paper PMC10627819

Columns and labels:
[1] = system: B. subtilis 168; test: fitness (endpoint OD595 vs no drug) (fraction); higher = more growth
In short: (§1)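 Fitness was measured as bacterial growth in 384-well plates inoculated at OD595 0.01 (30 µl, or 55 µl for S. pneumoniae). Media were TSB, LB Lennox or CY, at 37 °C. OD595 was read every 30 min for 14 h and background-subtracted against the first reading. Fitness is OD595 at the transition into stationary phase divided by the robust mean of no-drug control wells, capped at 1.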

[2] = system: S. pneumoniae D39V; test: as above
In short: as §1

[3] = system: B. subtilis 168; test: Bliss interaction score (quartile over a dose matrix) (fitness difference); higher = more antagonism (negative = synergy)
In short: (§2)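 The Bliss score subtracts expected fitness, the product of the single-drug fitness values, from observed fitness. Fitness is plate-normalised OD595 at entry into stationary phase, relative to the robust no-drug mean and capped at 1, with single-drug fitness inferred from combinations. Summaries are quartiles over technical, biological and donor/recipient replicates.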

[4] = system: S. aureus Newman; test: as above
In short: as §2

[5] = system: S. pneumoniae D39V; test: as above
In short: as §2

[6] = system: S. aureus DSM 20231; test: as above
In short: as §2
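Throughout, for Bliss interaction score (quartile over a dose matrix): first quartile when negative (synergy) and third quartile when positive (antagonism).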

C[C@H]1c2cccc(O)c2C(=O)C2=C(O)[C@]3(O)C(=O)C(C(N)=O)=C(O)[C@@H](N(C)C)[C@@H]3[C@@H](O)[C@@H]21 [Doxycycline] + C[C@H]1COc2c(N3CCN(C)CC3)c(F)cc3c(=O)c(C(=O)O)cn1c23 [Levofloxacin]
fitness, one replicate
Settings	first compound 0.003875 µg/mL	first compound 0.00775 µg/mL	first compound 0.02 µg/mL	first compound 0.031 µg/mL	first compound 0.04 µg/mL	first compound 0.062 µg/mL	first compound 0.08 µg/mL
[1], partner 0.001 µg/mL	–	–	0.929	–	0.859	–	0.735
[1], partner 0.0078 µg/mL	–	–	0.989	–	0.859	–	0.712
[2], partner 0.2 µg/mL	0.984	0.927	–	0.822	–	0.712	–
[2], partner 0.4 µg/mL	0.858	0.838	–	0.816	–	0.687	–
[2], partner 0.8 µg/mL	0.581	0.62	–	0.697	–	0.595	–

Settings	fitness
[1], first compound 0.02 µg/mL, partner 0.002 µg/mL	0.937
[1], first compound 0.02 µg/mL, partner 0.0039 µg/mL	0.939
[1], first compound 0.02 µg/mL, partner 0.0312 µg/mL	0.0328
[1], first compound 0.02 µg/mL, partner 0.0625 µg/mL	0.0358
[1], first compound 0.02 µg/mL, partner 0.125 µg/mL	0.0474
[1], first compound 0.04 µg/mL, partner 0.002 µg/mL	0.784
[1], first compound 0.04 µg/mL, partner 0.0039 µg/mL	0.817
[1], first compound 0.04 µg/mL, partner 0.0312 µg/mL	0.0347
[1], first compound 0.04 µg/mL, partner 0.0625 µg/mL	0.032
[1], first compound 0.04 µg/mL, partner 0.125 µg/mL	0.0298
[1], first compound 0.08 µg/mL, partner 0.002 µg/mL	0.656
[1], first compound 0.08 µg/mL, partner 0.0039 µg/mL	0.681
[1], first compound 0.08 µg/mL, partner 0.0312 µg/mL	0.0307
[1], first compound 0.08 µg/mL, partner 0.0625 µg/mL	0.0405
[1], first compound 0.08 µg/mL, partner 0.125 µg/mL	0.0329
[2], first compound 0.0155 µg/mL, partner 0.1725 µg/mL	0.895
[2], first compound 0.0155 µg/mL, partner 0.2 µg/mL	0.946
[2], first compound 0.0155 µg/mL, partner 0.345 µg/mL	0.805
[2], first compound 0.0155 µg/mL, partner 0.4 µg/mL	0.887
[2], first compound 0.0155 µg/mL, partner 0.69 µg/mL	0.584
[2], first compound 0.0155 µg/mL, partner 0.8 µg/mL	0.677
[2], first compound 0.031 µg/mL, partner 0.1725 µg/mL	0.889
[2], first compound 0.031 µg/mL, partner 0.345 µg/mL	0.795
[2], first compound 0.031 µg/mL, partner 0.69 µg/mL	0.485
[2], first compound 0.062 µg/mL, partner 0.1725 µg/mL	0.873
[2], first compound 0.062 µg/mL, partner 0.345 µg/mL	0.775
[2], first compound 0.062 µg/mL, partner 0.69 µg/mL	0.652

Settings	Bliss interaction score
[3]	0.043
[4]	0.0574
[5]	0.0649
[6]	0.075

C[C@H]1c2cccc(O)c2C(=O)C2=C(O)[C@]3(O)C(=O)C(C(N)=O)=C(O)[C@@H](N(C)C)[C@@H]3[C@@H](O)[C@@H]21 [Doxycycline] + CCC[C@@H]1C[C@@H](C(=O)N[C@@H]([C@H]2O[C@H](SC)[C@H](O)[C@@H](O)[C@H]2O)[C@@H](C)O)N(C)C1 [Lincomycin]
fitness
Settings	partner 0.1 µg/mL	partner 0.2 µg/mL	partner 0.215 µg/mL	partner 0.4 µg/mL	partner 0.43 µg/mL	partner 0.8 µg/mL	partner 0.86 µg/mL
[1], first compound 0.02 µg/mL	0.918	0.888	–	0.885	–	–	–
[1], first compound 0.04 µg/mL	0.764	0.72	–	0.717	–	–	–
[2], first compound 0.0155 µg/mL	–	0.76	0.726	0.657	0.62	0.213	0.344
[2], first compound 0.031 µg/mL	–	–	0.716	–	0.625	–	0.298
[2], first compound 0.062 µg/mL	–	–	0.674	–	0.481	–	0.221

fitness, one replicate
Settings	first compound 0.003875 µg/mL	first compound 0.00775 µg/mL	first compound 0.02 µg/mL	first compound 0.031 µg/mL	first compound 0.04 µg/mL	first compound 0.062 µg/mL	first compound 0.08 µg/mL
[1], partner 0.8 µg/mL	–	–	0.881	–	0.693	–	0.209
[1], partner 1.6 µg/mL	–	–	0.792	–	0.549	–	0.153
[2], partner 0.2 µg/mL	0.822	0.77	–	0.636	–	0.374	–
[2], partner 0.4 µg/mL	0.748	0.711	–	0.398	–	0.146	–
[2], partner 0.8 µg/mL	0.231	0.303	–	0.163	–	0.0672	–

Settings	Bliss interaction score
[3]	0.0648
[4]	-0.0975
[5]	-0.13
[6]	-0.228

C[C@H]1c2cccc(O)c2C(=O)C2=C(O)[C@]3(O)C(=O)C(C(N)=O)=C(O)[C@@H](N(C)C)[C@@H]3[C@@H](O)[C@@H]21 [Doxycycline] + CN(N=O)C(=O)N[C@@H](C=O)[C@@H](O)[C@H](O)[C@H](O)CO [Streptozotocin]
Settings	fitness
[1], first compound 0.02 µg/mL, partner 0.15 µg/mL	0.917
[1], first compound 0.02 µg/mL, partner 0.3 µg/mL	0.97
[1], first compound 0.02 µg/mL, partner 0.6 µg/mL	0.901
[1], first compound 0.04 µg/mL, partner 0.15 µg/mL	0.773
[1], first compound 0.04 µg/mL, partner 0.3 µg/mL	0.789
[1], first compound 0.04 µg/mL, partner 0.6 µg/mL	0.786
[1], first compound 0.08 µg/mL, partner 0.3 µg/mL	0.538
[1], first compound 0.08 µg/mL, partner 0.6 µg/mL	0.531
[2], first compound 0.0155 µg/mL, partner 1.2 µg/mL	0.919
[2], first compound 0.0155 µg/mL, partner 2.4 µg/mL	0.896
[2], first compound 0.0155 µg/mL, partner 4.8 µg/mL	0.914
[2], first compound 0.031 µg/mL, partner 1.2 µg/mL	0.837
[2], first compound 0.031 µg/mL, partner 2.4 µg/mL	0.847
[2], first compound 0.031 µg/mL, partner 4.8 µg/mL	0.822
[2], first compound 0.062 µg/mL, partner 1.2 µg/mL	0.754
[2], first compound 0.062 µg/mL, partner 2.4 µg/mL	0.761
[2], first compound 0.062 µg/mL, partner 4.8 µg/mL	0.71

fitness, [2], one replicate
Settings	partner 1.2 µg/mL	partner 2.4 µg/mL	partner 4.8 µg/mL
first compound 0.003875 µg/mL	0.989	0.971	0.984
first compound 0.00775 µg/mL	0.926	0.913	0.933

Settings	Bliss interaction score
[3]	0.0094
[4]	0.0413
[5]	-0.0474
[6]	0.0373
